Data taken from patent US8598384B2, “Crystalline teglicar” (Sigma-Tau Industrie Farmaceutiche Riunite S.p.A., priority 2007, dated 2013).

Experiments:
serum glucose levels = settings: diabetic mouse model; cited from earlier work
ketogenesis = settings: in vivo, fasted rats; cited from earlier work
[1] = target: T1, L-CPT I (liver CPT isoform I) (Homo sapiens, UniProt P50416); settings: in vitro; cited from earlier work
T1 sequence (P50416 1-773): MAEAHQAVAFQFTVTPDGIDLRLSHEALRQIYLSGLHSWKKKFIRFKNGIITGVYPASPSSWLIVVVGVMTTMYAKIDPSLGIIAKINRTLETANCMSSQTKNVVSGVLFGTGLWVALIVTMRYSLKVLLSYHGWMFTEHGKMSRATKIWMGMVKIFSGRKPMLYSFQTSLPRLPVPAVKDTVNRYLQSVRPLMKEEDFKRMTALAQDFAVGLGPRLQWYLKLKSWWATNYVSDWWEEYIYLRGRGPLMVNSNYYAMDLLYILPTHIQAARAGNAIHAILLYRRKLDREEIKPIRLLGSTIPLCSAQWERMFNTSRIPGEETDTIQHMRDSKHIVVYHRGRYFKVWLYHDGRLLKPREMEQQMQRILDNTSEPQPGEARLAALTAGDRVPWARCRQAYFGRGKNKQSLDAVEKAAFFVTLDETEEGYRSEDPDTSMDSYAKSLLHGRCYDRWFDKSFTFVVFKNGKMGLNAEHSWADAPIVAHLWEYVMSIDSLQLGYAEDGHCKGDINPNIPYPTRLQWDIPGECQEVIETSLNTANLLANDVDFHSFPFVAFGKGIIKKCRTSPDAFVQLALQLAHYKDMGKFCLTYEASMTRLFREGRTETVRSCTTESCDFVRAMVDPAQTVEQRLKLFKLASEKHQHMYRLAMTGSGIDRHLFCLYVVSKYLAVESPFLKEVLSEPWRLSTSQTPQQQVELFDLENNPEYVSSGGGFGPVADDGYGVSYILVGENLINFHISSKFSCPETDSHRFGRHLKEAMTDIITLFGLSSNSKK

[2] = Karl Fisher analysis (water content), hygroscopic stability; format: physicochemical; settings: exposed to the air for 18 hours; for KF (% H2O) t = 18 h: kept at room temperature
Experimental: Water content analysis were carried out with a Metrohm's KF Coulometer, using Metrohm glass vials (volume 10 mL) with elastometric tight closure, with about 10÷40 mg of sample. The samples were analyzed at 140° C.
The reference was an empty vial of the same kind. Sodium Tartrate diHydrate (theoretical amount is 15.66%) was used to assess the calibration of the apparatus with regard to the humidity.
Then these compounds were kept at room temperature under the same conditions, exposed to the air for 18 hours.

Compound | change in heart weight and triglycerides content (serum glucose levels) | effect on serum glucose levels (serum glucose levels) | effect on ketogenesis (ketogenesis) | selectivity of inhibition of L-CPT I with respect to M-CPT I [1] | KF (% H2O) t = 18 h [2] | change of H2O content after exposure to air ([2]; room temperature, repeated KF analysis)
CCCCCCCCCCCCCCNC(=O)N[C@H](CC(=O)[O-])C[N+](C)(C)C [teglicar, R-4-trimethylammonium-3-(tetradecylcarbamoyl)-amino butyrate] | without any significant change | good reduction of serum glucose levels | depress ketogenesis | selectively inhibit | – | –
CCCCCCCCCCCCCCNC(=O)N[C@H](CC(=O)[O-])C[N+](C)(C)C [Example 1, R-4-trimethylammonium-3-(tetradecylcarbamoyl)-amino butyrate] | – | – | – | – | 5.8% | –
CCCCCCCCCCCCCCNC(=O)N[C@H](CC(=O)[O-])C[N+](C)(C)C [Comparative Example 2, R-4-trimethylammonium-3-(tetradecylcarbamoyl)-amino butyrate] | – | – | – | – | 15.2% | large increase of H2O content
